Molecules are shown by their SMILES.

Experiment [1] deals with STIB719/ILRAD560 T. vivax (drug sensitive) strain. Description: Ex vivo Alamar Blue 48 h drug sensitivity assay for T. vivax. The experiment is classed as cell-based. The conditions noted are these: Trypanosoma vivax, ex vivo bloodstream form from mouse, 45 hrs + 3 hrs Resazurin, 37° C., read-out: IC50: I Hypoxanthine Incorporation T. vivax 2 d.
For experiment [2], the system named is IL3000 T. congolense (drug sensitive) strain. Nature of the experiment: In vitro Alamar Blue 72 h drug sensitivity assay for T. congolense. The experiment is classed as cell-based, Trypanosoma congolense. The conditions noted are these: Trypanosoma congolense, 72 h, bloodstream form, 69 h + 3 h Resazurin, 34° C., read-out: IC50: I Org. Growth T. congolense 3 d. In outline:
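Bloodstream-form trypanosomes in HMI medium with 20% bovine serum were exposed to compounds for 69 h at 34° C, 5% CO2, then resazurin for another 3 h. Fluorescence read at ex 536/em 588 nm; IC50 from 11-point sigmoidal dose-response curves, at least three independent runs.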

Experiment [3] has as its system T. cruzi amastigote (Td Tomato-modified) in Vero cells. Description: In vitro IC50 measurement of T. cruzi amastigote killing using Td Tomato-modified T. cruzi. The conditions noted are these: Trypanosoma cruzi, 72 h, fluorescence, read-out: IC50: I Org. amastigote Growth T. cruzi 3 d. The experiment is classed as cell-based. In outline:
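Vero cells infected with Td Tomato-expressing T. cruzi, treated with compound at 5 uM to 5 nM final, incubated 72 h at 37 °C. Fluorescence (Ex 544/Em 612 nm) read at Day 0 and Day 3, Day 0 subtracted; IC50 and IC90 by nonlinear regression.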

Consider `Cc1c(C(=O)N[C@H](C(=O)OCc2cccc(F)c2)C(C)C)ccc2c1B(O)OC2` [Example 6-042, 3-Fluorobenzyl (1-hydroxy-7-methyl-1,3-dihydrobenzo[c][1,2]oxaborole-6-carbonyl)-L-valinate], for which the values for the IC50 in experiment [1] and in experiment [2] were less than 0.0005 µM and 0.00051 to 0.00999 µM, respectively.
With `Cc1c(C(=O)N[C@H](C(=O)OC2CCC2)C(C)C)ccc2c1B(O)OC2` [Example 6-136, Cyclobutyl (1-hydroxy-7-methyl-1,3-dihydrobenzo[c][1,2]oxaborole-6-carbonyl)-L-valinate], the IC50 in experiment [3] was not above 0.02 µM; in experiment [2], less than 0.0005 µM.
The matching figures for `Cc1c(C(=O)N[C@H](C(=O)OCCc2ccccn2)C(C)C)ccc2c1B(O)OC2` [Example 6-173, 2-(Pyridin-2-yl)ethyl (1-hydroxy-7-methyl-1,3-dihydrobenzo[c][1,2]oxaborole-6-carbonyl)-L-valinate]: not above 0.02 µM and less than 0.0005 µM.
As to `Cc1c(C(=O)N[C@H](C(=O)OC[C@@H](O)CO)C(C)C)ccc2c1B(O)OC2` [Example 6-148, (S)-2,3-dihydroxypropyl (1-hydroxy-7-methyl-1,3-dihydrobenzo[c][1,2]oxaborole-6-carbonyl)-L-valinate], the IC50 in experiment [3] was not below 1 µM; in experiment [2], 0.01 to 5 µM.
In the same order, the values of `Cc1c(C(=O)N[C@H](C(=O)OCc2ccc(OCCN3CCCC3)c(Cl)c2)C(C)C)ccc2c1B(O)OC2` [Example 6-243, 3-Chloro-4-(2-(pyrrolidin-1-yl)ethoxy)benzyl (1-hydroxy-7-methyl-1,3-dihydrobenzo[c][1,2]oxaborole-6-carbonyl)-L-valinate] are 0.021 to 0.999 µM and 0.00051 to 0.00999 µM.
The matching figures for `Cc1c(C(=O)N[C@H](C(=O)OCc2c[nH]cn2)C(C)C)ccc2c1B(O)OC2` [Example 6-138, (1H-Imidazol-4-yl)methyl (1-hydroxy-7-methyl-1,3-dihydrobenzo[c][1,2]oxaborole-6-carbonyl)-L-valinate]: not below 1 µM and 0.01 to 5 µM.
Regarding `Cc1c(C(=O)N[C@H](C(=O)OC[C@H]2COC(C)(C)O2)C(C)C)ccc2c1B(O)OC2` [Example 6-144, ((R)-2,2-Dimethyl-1,3-dioxolan-4-yl)methyl (1-hydroxy-7-methyl-1,3-dihydrobenzo[c][1,2]oxaborole-6-carbonyl)-L-valinate], the results for the IC50 in experiment [3] and in experiment [2] were not above 0.02 µM and 0.00051 to 0.00999 µM, respectively.
In the same order, the values of `Cc1c(C(=O)N[C@H](C(=O)OC(C)(C)C)C(C)C)ccc2c1B(O)OC2` [Example 6-188, Tert-butyl (1-hydroxy-7-methyl-1,3-dihydrobenzo[c][1,2]oxaborole-6-carbonyl)-L-valinate] are not below 1 µM and 0.01 to 5 µM.
In the same order, the values of `Cc1c(C(=O)N[C@H](C(=O)OCc2ccc(OC(F)(F)F)cc2)C(C)C)ccc2c1B(O)OC2` [Example 6-054, 4-Trifluoromethoxybenzyl (1-hydroxy-7-methyl-1,3-dihydrobenzo[c][1,2]oxaborole-6-carbonyl)-L-valinate] are not above 0.02 µM and less than 0.0005 µM.
In the same order, the values of `Cc1c(C(=O)N[C@H](C(=O)OCc2ccc(F)c(OCCN3CCCC3)c2)C(C)C)ccc2c1B(O)OC2` [Example 6-245, 4-Fluoro-3-(2-(pyrrolidin-1-yl)ethoxy)benzyl (1-hydroxy-7-methyl-1,3-dihydrobenzo[c][1,2]oxaborole-6-carbonyl)-L-valinate] are 0.021 to 0.999 µM and 0.00051 to 0.00999 µM.
Turning to `Cc1c(C(=O)N[C@H](C(=O)OCC(C)N2CCOCC2)C(C)C)ccc2c1B(O)OC2` (stereo partly drawn) [Example 6-207, 2-morpholinopropyl (1-hydroxy-7-methyl-1,3-dihydrobenzo[c][1,2]oxaborole-6-carbonyl)-L-valinate], the IC50 is 0.021 to 0.999 µM in experiment [3] and 0.00051 to 0.00999 µM in experiment [2].
As for `CC(C)[C@H](NC(=O)c1ccc2c(c1F)B(O)OC2)C(=O)OCc1ccccc1` [Example 6-035, Benzyl (7-fluoro-1-hydroxy-1,3-dihydrobenzo[c][1,2]oxaborole-6-carbonyl)-L-valinate], the IC50 in experiment [3] was not below 1 µM; in experiment [2], 0.01 to 5 µM.
Turning to `Cc1c(C(=O)N[C@H](C(=O)OC2CCOCC2)C(C)C)ccc2c1B(O)OC2` [Example 6-134, Tetrahydro-2H-pyran-4-yl (1-hydroxy-7-methyl-1,3-dihydrobenzo[c][1,2]oxaborole-6-carbonyl)-L-valinate], the figures for the IC50 in experiment [3] and in experiment [2] were not above 0.02 µM and less than 0.0005 µM, respectively.
In the same order, the values of `Cc1c(C(=O)N[C@H](C(=O)OCc2ccc(OCCCN3CCCC3)cc2)C(C)C)ccc2c1B(O)OC2` [Example 6-249, 4-(3-(Pyrrolidin-1-yl)propoxy)benzyl(1-hydroxy-7-methyl-1,3-dihydrobenzo[c][1,2]oxaborole-6-carbonyl)-L-valinate] are 0.021 to 0.999 µM and 0.00051 to 0.00999 µM.
The matching figures for `Cc1c(C(=O)N[C@H](C(=O)OCc2ccc3ccccc3n2)C(C)C)ccc2c1B(O)OC2` [Example 6-125, Quinolin-2-ylmethyl (1-hydroxy-7-methyl-1,3-dihydrobenzo[c][1,2]oxaborole-6-carbonyl)-L-valinate]: 0.021 to 0.999 µM and less than 0.0005 µM.
In the same order, the values of `Cc1c(C(=O)N[C@H](C(=O)OCc2cccc(Cl)c2)C(C)C)ccc2c1B(O)OC2` [Example 6-043, 3-Chlorobenzyl (1-hydroxy-7-methyl-1,3-dihydrobenzo[c][1,2]oxaborole-6-carbonyl)-L-valinate] are not above 0.02 µM and less than 0.0005 µM.
In the case of `Cc1c(C(=O)NC2(C(=O)OCc3ccccn3)COC2)ccc2c1B(O)OC2` [Example 6-223, Pyridin-2-ylmethyl 3-(1-hydroxy-7-methyl-1,3-dihydrobenzo[c][1,2]oxaborole-6-carboxamido)oxetane-3-carboxylate], the results for the IC50 in experiment [3] and in experiment [2] were 0.021 to 0.999 µM and 0.01 to 5 µM, respectively.
In the same order, the values of `Cc1c(C(=O)N[C@H](C(=O)OCc2cnc3ccccc3n2)C(C)C)ccc2c1B(O)OC2` [Example 6-123, Quinoxalin-2-ylmethyl (1-hydroxy-7-methyl-1,3-dihydrobenzo[c][1,2]oxaborole-6-carbonyl)-L-valinate] are not above 0.02 µM and less than 0.0005 µM.
In the same order, the values of `CC(C)[C@H](NC(=O)c1ccc2c(c1C(F)(F)F)B(O)OC2)C(=O)OCc1ccccc1` [Example 6-071, Benzyl (1-hydroxy-7-(trifluoromethyl)-1,3-dihydrobenzo[c][1,2]oxaborole-6-carbonyl)-L-valinate] are 0.021 to 0.999 µM and 0.01 to 5 µM.
Take `Cc1c(C(=O)N[C@H](C(=O)OCC2(O)CCCC2)C(C)C)ccc2c1B(O)OC2` [Example 6-220, (1-hydroxycyclopentyl)methyl (1-hydroxy-7-methyl-1,3-dihydrobenzo[c][1,2]oxaborole-6-carbonyl)-L-valinate]: the results for the IC50 in experiment [3] and in experiment [2] were not above 0.02 µM and 0.00051 to 0.00999 µM, respectively.
The matching figures for `Cc1c(C(=O)N[C@H](C(=O)OCc2ccc(F)cc2)[C@H](C)OCc2ccc(F)cc2)ccc2c1B(O)OC2` [Example 6-097, 4-Fluorobenzyl O-(4-fluorobenzyl)-N-(1-hydroxy-7-methyl-1,3-dihydrobenzo[c][1,2]oxaborole-6-carbonyl)-L-allothreoninate]: 0.021 to 0.999 µM and 0.00051 to 0.00999 µM.
In the same order, the values of `Cc1c(C(=O)N[C@H](C(=O)OCc2ccc(S(=O)(=O)N3CCOCC3)cc2)C(C)C)ccc2c1B(O)OC2` [Example 6-086, 4-(Morpholinosulfonyl)benzyl (1-hydroxy-7-methyl-1,3-dihydrobenzo[c][1,2]oxaborole-6-carbonyl)-L-valinate] are 0.021 to 0.999 µM and less than 0.0005 µM.
In the same order, the values of `Cc1c(C(=O)N[C@H](C(=O)OCCN2CCOC2=O)C(C)C)ccc2c1B(O)OC2` [Example 6-216, 2-(2-oxooxazolidin-3-yl)ethyl (1-hydroxy-7-methyl-1,3-dihydrobenzo[c][1,2]oxaborole-6-carbonyl)-L-valinate] are not below 1 µM and 0.01 to 5 µM.
For the molecule `CC(C)[C@H](NC(=O)c1ccc2c(c1C(F)F)B(O)OC2)C(=O)OCc1ccc(F)cc1` [Example 6-073, 4-Fluorobenzyl (7-(difluoromethyl)-1-hydroxy-1,3-dihydrobenzo[c][1,2]oxaborole-6-carbonyl)-L-valinate], the IC50 is not above 0.02 µM in experiment [3] and 0.00051 to 0.00999 µM in experiment [2].
The matching figures for `Cc1c(C(=O)N[C@H](C(=O)OCc2ncc(F)cn2)C(C)C)ccc2c1B(O)OC2` [Example 6-202, (5-fluoropyrimidin-2-yl)methyl (1-hydroxy-7-methyl-1,3-dihydrobenzo[c][1,2]oxaborole-6-carbonyl)-L-valinate]: not above 0.02 µM and less than 0.0005 µM.
The matching figures for `Cc1c(C(=O)N[C@H](C(=O)OCc2ccc(S(C)(=O)=O)c(CN(C)C)c2)C(C)C)ccc2c1B(O)OC2` [Example 6-110, 3-((Dimethylamino)methyl)-4-(methylsulfonyl)benzyl (1-hydroxy-7-methyl-1,3-dihydrobenzo[c][1,2]oxaborole-6-carbonyl)-L-valinate]: 0.021 to 0.999 µM and 0.00051 to 0.00999 µM.
In the same order, the values of `Cc1c(C(=O)N(C)[C@H](C(=O)OCc2ccc(F)cc2)C(C)C)ccc2c1B(O)OC2` [Example 6-118, 4-Fluorobenzyl N-(1-hydroxy-7-methyl-1,3-dihydrobenzo[c][1,2]oxaborole-6-carbonyl)-N-methyl-L-valinate] are not below 1 µM and 0.01 to 5 µM.

For the origin of these results see patent publication US11578087B2, “Oxaborole esters and uses thereof” (priority 2016, dated 2023).
